# According to publication PMC4153969, “A Novel Suspension Formulation Enhances Intestinal Absorption of Macromolecules Via Transient and Reversible Transport Mechanisms” (Pharmaceutical Research, 2014):
# What was measured:
# in vivo [1] = assay: in vivo
# Method: Octreotide acetate in saline was also injected subcutaneously to this animal model.
# The octreotide immunoassay is based on a single-step, extraction-free, simultaneous assay procedure (Peninsula Laboratories, Division of Bachem, San Carlos, CA) designed to quantify octreotide concentrations. Briefly, octreotide standards (0.05–6.25 ng/mL) and rat plasma samples were diluted 1:10 with PBS, followed by addition of octreotide anti-rabbit antiserum antibody, biotinylated octreotide tracer, and assay buffer. Samples were washed and incubated with streptavidin–HRP. Optical density was read at a dual absorbance of 450 nm and 630 nm using an Enzyme-Linked Immunoassay (ELISA) reader (Multiskan EX Labsystems; Thermo Electron Corporation, Milford, MA) after addition of TMB solution and acidic stopping solution.
# Results were expressed as mean ± SE. The area under plasma concentration–time profile measured from time zero to the last measurable plasma concentration was calculated according to the linear trapezoidal rule. Relative enteral bioavailability (rBA) following intra-jejunal administration of the OS formulation to rats was calculated compared with SC injection as follows: rBA%=AUCjejunum/AUCSC×DoseSC/Dosejejunum×100
# in vivo [2] = conditions: cynomolgus monkey, plasma, sc, 0.1 mg, plasma octreotide, SC injection 0.1 mg daily
# Method: Enteric-coated capsules containing octreotide (20 mg)/OS or olive oil were administrated daily per os to fasted monkeys for 9 months, and swallowed with 10 mL water. In addition, a 1 mL ampule containing octreotide acetate at a concentration of 0.1 mg/mL (Sandostatin®, Novartis Pharmaceuticals, East Hanover, NJ) was administered by daily subcutaneous (SC) injection to another monkeys group. Oral administration of OS in rodent studies was limited due to the lack of properly enteric coated mini-gelatin capsules. Thus, the OS, containing fluorescent marker molecules (see below) or octreotide was enterally injected via implanted cannulas.
# On Day 1 and after 3, 6 and 9 months, whole-blood samples (3.0 mL) were collected at routine intervals after completion of oral octreotide dosing. Plasma octreotide levels were determined by a validated liquid chromatographic spectrometric method (PPD Laboratories, Richmond, VA) as described elsewhere ([18]). The maximum plasma concentration (Cmax) and time to Cmax (Tmax) were derived from the data. The area under the curve (AUC) from zero to the last sample with a concentration ≥LOQ [AUC(0-t)] was calculated using the linear trapezoidal method. Analysis of plasma octreotide concentration vs. time was performed using SAS® for Windows® Version 9.3. The primary pharmacokinetic end point variables (Cmax and AUC0-t) were compared using analysis of variance (ANOVA) with treatment time (1, 180, 270-d) as a within-subject (repeated measures)-factor and sex as a between-subject factor.
# Cynomolgus monkeys = assay: 9-month chronic toxicity study, daily oral enteric-coated capsules; assay type: in vivo, Cynomolgus monkeys (Macaca fasicularis); conditions: compared to the negative control group (olive oil)
# Method: During the dosing period, animals were fasted for 8 to 10 h prior to dosing, and the first feeding was given 2 h after dosing. Monkeys were observed twice daily for mortality, morbidity, and clinical signs of adverse health effects and qualitative food consumption. Weekly examinations were performed on each animal before drug administration and before terminal sacrifice. Pre-dose body weights were recorded (week −1) and weekly thereafter. Blood samples (~5 ml) were collected for hematology and serum chemistry from the femoral vein before drug administration and from surviving animals prior to the terminal necropsy.
# A complete ophthalmic examination was performed on each monkey by a Diplomat of the American College of Veterinary Ophthalmologist veterinarian before animal selection/group assignment (pretest) and again, prior to study termination.
# Electrocardiograms (ECGs) were obtained twice pre-study and were analyzed by a veterinary cardiologist for the presence of significant abnormalities. ECGs were also obtained following the 1st dose and at the 3, 6, and 9 months of dosing. Standard ECGs (10 Lead) were recorded at 50 mm/s. Using Lead II (or another appropriate lead), the RR, PR, and QT intervals, and QRS duration were measured and heart rate was determined. The QT interval was calculated using Bazett’s Rule. […]
smiles,measurement,setting,value
C[C@@H](O)[C@@H]1NC(=O)[C@H](CCCCN)NC(=O)[C@@H](Cc2c[nH]c3ccccc23)NC(=O)[C@H](Cc2ccccc2)NC(=O)[C@@H](NC(=O)[C@H](N)Cc2ccccc2)CSSC[C@@H](C(=O)N[C@H](CO)[C@@H](C)O)NC1=O [octreotide acetate],AUC(0-t),"in vivo [1]; Sprague-Dawley, rat, plasma, sc, 0.172 mg/kg",205 ng·h/mL
same,change in rat plasma peptide concentrations,"in vivo [1]; enteral dosing in saline solution without OS, data not shown",negligible changes
same,AUC(0-t),"in vivo [2]; female, Day 1, female monkeys",64.3 ± 5.3 ng·h/mL
same,AUC(0-t),"in vivo [2]; female, Day 180, female monkeys",60.8 ± 6.9 ng·h/mL
same,AUC(0-t),"in vivo [2]; female, Day 270, female monkeys",49.6 ± 3 ng·h/mL
same,AUC(0-t),"in vivo [2]; male, Day 1, male monkeys",41.7 ± 8.6 ng·h/mL
same,AUC(0-t),"in vivo [2]; male, Day 180, male monkeys",46.2 ± 5.4 ng·h/mL
same,AUC(0-t),"in vivo [2]; male, Day 270, male monkeys",51.3 ± 11.3 ng·h/mL
same,clinical observation: hair and skin,Cynomolgus monkeys; both sexes,increased incidence of sparse hair and red discoloured skin
same,clinical observation: feces,Cynomolgus monkeys,higher incidence of watery feces
